For assay [1], the target named is T1, 3-phosphoinositide-dependent protein kinase 1 (Homo sapiens) (UniProt O15530).
T1 sequence (whole entry): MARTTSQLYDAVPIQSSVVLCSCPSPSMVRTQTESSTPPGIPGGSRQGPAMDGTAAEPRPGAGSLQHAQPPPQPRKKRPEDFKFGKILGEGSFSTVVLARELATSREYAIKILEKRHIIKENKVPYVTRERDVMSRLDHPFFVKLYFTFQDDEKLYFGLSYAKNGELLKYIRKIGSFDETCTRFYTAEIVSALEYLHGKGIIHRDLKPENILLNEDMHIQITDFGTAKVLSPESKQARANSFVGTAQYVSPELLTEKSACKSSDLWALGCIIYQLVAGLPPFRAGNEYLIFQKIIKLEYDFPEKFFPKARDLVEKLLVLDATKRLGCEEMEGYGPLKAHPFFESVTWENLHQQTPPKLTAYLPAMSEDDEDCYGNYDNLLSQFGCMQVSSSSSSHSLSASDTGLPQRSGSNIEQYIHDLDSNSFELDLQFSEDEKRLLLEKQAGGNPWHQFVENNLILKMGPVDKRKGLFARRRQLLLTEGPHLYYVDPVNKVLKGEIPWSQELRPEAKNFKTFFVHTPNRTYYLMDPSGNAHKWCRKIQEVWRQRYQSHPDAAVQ
The assay can be described thus: Binding affinity to wild type recombinant GST-PDK1 expressed in HEK293 cells at 2 uM. Format: cell-based.

For assay [2], the system named is T2, 3-phosphoinositide-dependent protein kinase 1 (Homo sapiens), O15530 [V127T].
T2 sequence (whole entry): T1 sequence (whole entry) with V127T
The assay can be described thus: Binding affinity to GST-PDK1 V127T mutant expressed in HEK293 cells at 2 uM. Format: cell-based.

Assay [3] concerns the target T3, 3-phosphoinositide-dependent protein kinase 1 (Homo sapiens, UniProt O15530).
T3 sequence (O15530 whole entry): T1 sequence (whole entry)
The experiment in a line: Binding affinity to PDK1 (50 to 359) by isothermal titration calorimetry.

Assay [4] has as its target T1, 3-phosphoinositide-dependent protein kinase 1 (Homo sapiens).

Substitutions are numbered along the chain they refer to. Active and inactive are the calls of the source. No cut-off for these calls is given here.

Regarding H-REPRILSEEEQEMFRDFDYIADEC-OH, the outcome in assay [1] and in assay [2] was Active. Regarding `O=C(O)/C=C(/CCc1c[nH]c2ccccc12)c1ccccc1`, the Kd in assay [3] (read-out: Kd) worked out at 10 µM. Still for that read-out and setting: in the case of `O=C(O)/C=C(/CCc1ccc2ccccc2c1)c1ccccc1` it was 13.8 µM. Turning to `O=C(O)/C=C(/CCc1ccc(Cl)c(Cl)c1)c1ccccc1`, the Ka in assay [4] is 71800 M⁻¹. For the same molecule, in assay [3] (read-out: Kd), the dissociation constant (Kd) was 13.9 µM.

With `O=C(O)/C=C(/CCc1ccc(Cl)cc1Cl)c1ccccc1`, the Kd in assay [3] (read-out: Kd) came to 5.9 µM. In the case of `O=C(O)/C=C(\CCc1ccc2ccccc2c1)c1ccccc1`, in assay [3], the equilibrium dissociation constant (Kd) entry is given as “Not Active”. With `O=C(O)/C=C(/CCc1ccc(C(F)(F)F)cc1)c1ccccc1`, the Ka in assay [4] came out at 96600 M⁻¹. In assay [3] (read-out: Kd), the dissociation constant (Kd) was found to be 10.4 µM. With `O=C(O)/C=C(\CCc1ccc(Br)cc1F)c1ccccc1`, in assay [3], the Kd entry is recorded as “Not Active”. As for `O=C(O)/C=C(/CCc1ccc(Br)cc1)c1ccccc1`, the Ka in assay [4] came out at 47800 M⁻¹. The dissociation constant Kd in assay [3] (read-out: Kd) amounted to 20.9 µM. Consider `O=C(O)/C=C(\CCC1C=Nc2ccccc21)c1ccccc1` (centres undefined), for which the dissociation constant (Kd) entry in assay [3] was “Not Active”.

These data come from ChEMBL document CHEMBL1153471, “3,5-Diphenylpent-2-enoic acids as allosteric activators of the protein kinase PDK1: structure-activity relationships and thermodynamic characterization of binding as paradigms for PIF-binding pocket-targeting compounds” (J Med Chem, 2009).
